From US12637464B2, “Tetracyclic compounds for treating brain disorders” (The Regents of the University of California, priority 2021, dated 2026)

Tests used:
Sprague Dawley rats = test: Rat forced swim test (FST); type: in vivo; conditions: FST 24 h after compound administration; ketamine as comparator
Description: Rat Forced Swim Test (FST). This study was performed by Psychogenics (Paramus, NJ). Male Sprague Dawley rats were purchased from Envigo (Indianapolis, IN), and upon receipt, they were assigned unique identification numbers (tail marked) and group housed in ventilated cages with 3 rats per cage. All animals remained housed in groups of three for the remainder of the study. All rats were acclimated to the colony room for up to one week prior to dosing. During the period of acclimation, rats were examined and handled daily, and weighed to assure adequate health and suitability. The room temperature was maintained between 20° C. and 23° C. with a relative humidity of 30%-70%. Lab Rodent Diet 5001 (W.F. Fisher, Cat #11015) and water were provided ad libitum. […] All animals were carefully monitored to ensure their safety in the swim test and any animal unable to maintain a posture with its nose above water was immediately removed from the water and not used further in the study. […] This test lasted for 5 min and was video recorded. A blinded experimenter manually scored the videos for swimming, climbing, and immobility behavior. Scoring of the forced swim test was performed by trained technicians using a time sampling technique in which the animal in the video recorded test was viewed every 5 seconds and the behavior observed was noted (e.g., immobile, swimming, or climbing). […]

[1] = system: dendritic spine density in the PFC; test: In vivo spinogenesis (electron microscopy); parameters: species or system C57BL/6J mice; conditions: single dose 1 mg/kg, 24 h after administration, 3 animals per group
Description: In Vivo Spinogenesis. Female C57BL/6J mice (Jackson Laboratory, Sacramento, C.A.) were treated with VEH (saline) or (+)-JRT (n=3/group). After 24 h, the animals were sacrificed via transcardial perfusion with oxygenated Ringer's solution followed by a fixative (2% paraformaldehyde, 2.5% glutaraldehyde, 3 mM calcium chloride in 0.1 M cacodylate buffer). Brains were carefully removed from the skull and post-fixed overnight in the same fixative. Brains were then rinsed with PBS and 100 μm coronal sections spanning the prefrontal cortex were collected using a vibrating microtome (Leica). Regions of the infralimbic cortex were microdissected according to the Allen brain atlas and processed further for electron microscopy. Briefly, samples were stained with buffered 1.5% reduced osmium tetroxide for 45 minutes, rinsed thoroughly, further stained with 1% aqueous uranyl acetate overnight at 4° C., dehydrated and embedded in Eponate 12 epoxy resin. A blockface that spanned from the medial cortical surface to the corpus collosum was trimmed and 150-250 serial ultrathin sections (55 nm) were collected onto silicon chips using diamond knives (Diatome) on an ultramicrotome (Leica). Serial sections on silicon chips were loaded into the scanning electron microscope (SEM; Zeiss Sigma VP) for imaging. […] Dendritic spine densities (spines/micron) were calculated for each volume.

C57BL/6J mice = test: Amphetamine induced locomotion; type: in vivo, mouse; conditions: pretreatment 1 mg/kg
Description: Amphetamine Induced Locomotion. The amphetamine-induced hyperlocomotion assay was performed using male and female C57BL/6J mice that were approximately 8 weeks old at the time of the experiments. Animals were first placed in the test arena (40 cm×40 cm) for 15 min to obtain a basal reading of locomotion and habituate them to the testing arena. Next, animals were administered (+)-JRT (1 mg/kg) or VEH (2.5 mL/kg, i.p) and placed back in the test arena. After 15 min, the animals were administered D-amphetamine (3 mg/kg) or VEH (2.5 mL/kg) and placed back in the test arena for 60 minutes. Locomotion during the entire experiment was quantified using ANYmaze Video Tracking System, version 7.07 (Stoelting Co.).

SMILES: CCN(CC)C(=O)[C@@H]1C=C2c3cccc4ccn(c34)C[C@H]2N(C)C1 [(+)-JRT]
- antidepressant-like effects in rat FST (Sprague Dawley rats): antidepressant-like effects comparable to ketamine at substantially lower doses
- dendritic spine density in the PFC [1]: increases dendritic spine density
- AMPH-induced hyperlocomotion, female mice (C57BL/6J mice): can block
